Read-outs that look alike come from different tables or passages of the source.
Assays:
[1] = molecular target: α2C Human Adrenergic Receptor (Homo sapiens, UniProt P18825); experiment: Equilibrium competition binding, [3H] rauwolscine, membranes of transfected LM(tk-) cells
[2] = molecular target: T1, α2B Human Adrenergic Receptor (Homo sapiens, UniProt P18089); experiment: Equilibrium competition binding, [3H] rauwolscine, membranes of transfected Y-1 cells
T1 construct: expressed in transfected cells; host or cells: Y-1 cells
T1 sequence (P18089 1-450): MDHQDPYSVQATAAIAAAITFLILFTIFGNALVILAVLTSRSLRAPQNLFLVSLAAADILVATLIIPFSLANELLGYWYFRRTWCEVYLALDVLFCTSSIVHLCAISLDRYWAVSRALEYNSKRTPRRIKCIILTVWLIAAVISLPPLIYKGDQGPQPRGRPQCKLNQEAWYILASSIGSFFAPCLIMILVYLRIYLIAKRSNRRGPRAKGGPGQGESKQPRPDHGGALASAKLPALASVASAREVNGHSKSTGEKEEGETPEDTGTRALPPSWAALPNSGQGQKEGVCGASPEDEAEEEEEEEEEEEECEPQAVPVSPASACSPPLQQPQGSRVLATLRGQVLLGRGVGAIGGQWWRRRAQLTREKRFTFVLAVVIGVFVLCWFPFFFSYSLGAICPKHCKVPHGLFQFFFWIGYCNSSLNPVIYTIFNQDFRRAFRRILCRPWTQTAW
Protocol: (§1) Binding and functional assays were performed using stably transfected human alpha adrenergic receptors. Equilibrium competition binding assays were performed with membrane preparations from cultured LM(tk-) cells stably transfected with the cloned human adrenoceptor subtypes except for α2b, which was expressed in Y-1 cells, using [^3H] prazosin for α1 receptors and [^3H] rauwolscine for α2 receptors.
(§2) Stable cell lines were selected as described above.
(§3) Transfected cells from culture flasks were scraped into 5 ml of 5 mM Tris-HCl, 5 mM EDTA, pH 7.5, and lysed by sonication. The cell lysates were centrifuged at 1000 rpm for 5 min at 4° C., and the supernatant was centrifuged at 30,000×g for 20 min at 4° C. The pellet was suspended in 50 mM Tris-HCl, 1 mM MgCl2, and 0.1% ascorbic acid at pH 7.5. Binding of α2 antagonist [^3H] rauwolscine ([…]) to membrane preparations of LM(tk-) cells was done in a final volume of 0.25 ml and incubated at 37° C. for 20 min. Nonspecific binding was determined in the presence of 10 μM phentolamine. The reaction was stopped by filtration through GF/B filters using a cell harvester.

[3] = molecular target: T2, α1A Human Adrenergic Receptor (Homo sapiens, UniProt P25100); experiment: Equilibrium competition binding, [3H] prazosin, membranes of transfected LM(tk-) cells
T2 construct: expressed in transfected cells; host or cells: LM(tk-) cells
T2 sequence (P25100 1-572): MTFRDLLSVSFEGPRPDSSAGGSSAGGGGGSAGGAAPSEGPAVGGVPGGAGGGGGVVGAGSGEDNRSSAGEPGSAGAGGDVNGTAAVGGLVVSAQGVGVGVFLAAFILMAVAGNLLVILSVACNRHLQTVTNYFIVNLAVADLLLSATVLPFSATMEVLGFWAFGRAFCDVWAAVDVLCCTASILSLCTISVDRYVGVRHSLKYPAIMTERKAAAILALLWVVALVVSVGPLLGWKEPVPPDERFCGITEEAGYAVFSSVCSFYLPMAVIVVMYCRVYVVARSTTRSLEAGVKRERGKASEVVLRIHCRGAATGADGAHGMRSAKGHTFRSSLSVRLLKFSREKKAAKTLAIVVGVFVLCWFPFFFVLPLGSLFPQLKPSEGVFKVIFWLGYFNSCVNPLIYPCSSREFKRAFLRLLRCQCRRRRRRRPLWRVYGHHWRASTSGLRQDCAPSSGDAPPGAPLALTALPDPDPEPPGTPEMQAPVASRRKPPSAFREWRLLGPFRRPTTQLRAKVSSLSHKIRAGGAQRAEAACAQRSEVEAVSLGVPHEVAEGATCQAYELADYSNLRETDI
Protocol: as §1, §3, §2

[4] = molecular target: T3, α1B Human Adrenergic Receptor (Homo sapiens, UniProt P35368); experiment: as above
T3 construct: The entire coding region of α1B(1563 bp); expressed in transfected cells; host or cells: LM(tk-) cells
T3 sequence (P35368 1-520): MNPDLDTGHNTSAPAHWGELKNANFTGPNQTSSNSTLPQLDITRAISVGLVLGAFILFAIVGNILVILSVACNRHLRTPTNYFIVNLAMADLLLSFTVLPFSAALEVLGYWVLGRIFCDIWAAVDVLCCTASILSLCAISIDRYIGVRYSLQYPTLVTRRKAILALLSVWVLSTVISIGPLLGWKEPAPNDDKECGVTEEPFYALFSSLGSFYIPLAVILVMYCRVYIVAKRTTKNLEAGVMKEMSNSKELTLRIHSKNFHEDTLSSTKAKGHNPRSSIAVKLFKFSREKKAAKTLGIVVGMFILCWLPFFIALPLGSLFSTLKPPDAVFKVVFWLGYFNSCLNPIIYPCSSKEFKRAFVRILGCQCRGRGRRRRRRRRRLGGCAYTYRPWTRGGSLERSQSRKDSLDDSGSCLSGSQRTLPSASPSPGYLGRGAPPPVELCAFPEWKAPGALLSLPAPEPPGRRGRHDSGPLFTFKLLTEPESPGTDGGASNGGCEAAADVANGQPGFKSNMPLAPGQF
Protocol: as §1, §3
The construct involved ligating the full-length containing EcoRI brainstem cDNA fragment from ZapII into the expression vector. The stable cell lines were selected as described above.

[5] = molecular target: T4, α1C Human Adrenergic Receptor (Homo sapiens, UniProt P35348); experiment: as above
T4 construct: expressed in transfected cells; host or cells: LM(tk-) cells
T4 sequence (P35348 1-466): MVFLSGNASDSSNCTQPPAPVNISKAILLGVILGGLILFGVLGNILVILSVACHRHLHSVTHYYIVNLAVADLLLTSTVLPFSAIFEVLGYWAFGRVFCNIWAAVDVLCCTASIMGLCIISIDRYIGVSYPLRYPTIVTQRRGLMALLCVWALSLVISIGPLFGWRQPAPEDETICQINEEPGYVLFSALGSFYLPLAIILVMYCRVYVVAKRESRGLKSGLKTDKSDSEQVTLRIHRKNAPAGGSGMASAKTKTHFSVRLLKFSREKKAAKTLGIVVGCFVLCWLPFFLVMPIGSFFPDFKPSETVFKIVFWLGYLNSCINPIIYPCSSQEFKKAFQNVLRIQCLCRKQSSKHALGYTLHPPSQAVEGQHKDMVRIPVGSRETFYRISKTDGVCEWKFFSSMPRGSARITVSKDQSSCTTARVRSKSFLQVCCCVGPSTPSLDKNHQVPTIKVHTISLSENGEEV
Protocol: as §1, §3
The construct involved ligation three partial overlapping fragments: a 5′ 0.6 kb HincII genomic clone, a central 1.8 EcoRI hippocampal cDNA clone, and a 3′ 0.6 Kb PstI genomic clone. The hippocampal cDNA fragment overlaps with the 5′ and 3′ genomic clones so that the HincII and PstI sites at the 5 and 3′ ends of the cDNA clone, respectively, were utilized for ligation. This full-length clone was cloned into the KpnI site of the expression vector, using the 5′ and 3′ KpnI sites of the fragment, derived from vector (i.e., pBluescript) and 3′-untranslated sequences, respectively. Stable cell lines were selected as described above.

[6] = molecular target: T5, α2C Human Adrenergic Receptor (Homo sapiens, UniProt P18825); experiment: Equilibrium competition binding, [3H] rauwolscine, membranes of transfected LM(tk-) cells; remark: listed apart in the source
T5 sequence (P18825 1-462): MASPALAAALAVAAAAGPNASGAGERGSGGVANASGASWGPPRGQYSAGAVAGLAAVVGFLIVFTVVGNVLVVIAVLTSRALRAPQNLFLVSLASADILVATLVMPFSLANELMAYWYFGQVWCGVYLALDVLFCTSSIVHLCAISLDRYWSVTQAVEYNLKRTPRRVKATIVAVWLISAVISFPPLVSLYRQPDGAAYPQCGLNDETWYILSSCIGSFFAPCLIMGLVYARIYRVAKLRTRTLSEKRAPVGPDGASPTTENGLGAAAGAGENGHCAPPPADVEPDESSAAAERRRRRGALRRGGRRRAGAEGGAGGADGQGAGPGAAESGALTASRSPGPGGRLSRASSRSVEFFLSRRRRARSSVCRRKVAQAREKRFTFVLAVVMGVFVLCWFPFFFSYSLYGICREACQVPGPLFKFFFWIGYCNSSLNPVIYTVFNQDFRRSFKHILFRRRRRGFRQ

[7] = cloned human receptor, [3H] prazosin, read-out: pKi Alpha-1 B (converted)
[8] = cloned human receptor, [3H] prazosin, read-out: pKi Alpha-1 C (converted)
[9] = cloned human receptor, [3H] rauwolscine, read-out: pKi Alpha-2 B (converted)
[10] = cloned human receptor, [3H] prazosin, read-out: pKi Alpha-1 A (converted)

Row | Ki [3, 10] [µM] | SMILES | Ki [1] [nM] | Ki [2] [nM] | Ki [3] [µM] | Ki [4, 7] [µM] | Ki [5, 8] [nM] | Ki [6] [nM] | Ki [2, 9] [nM] | Ki [4] [µM] | Ki [5] [nM]
1 | – | CC(C)(C)c1nc2ccc(NC3=NCCN3)c(Br)c2[nH]1 | 295 | – | – | – | – | – | – | – | –
2 | – | CCCCc1c(NC2=NCCN2)ccc2nc[nH]c12 | 120 | – | – | – | – | – | – | – | –
3 | – | CCCCc1cc(NC2=NCCN2)cc2[nH]cnc12 | 204 | – | – | – | – | – | – | – | –
4 | – | CCc1nc2ccc(NC3=NCCN3)c(Br)c2[nH]1 | 182 | – | – | – | – | – | – | – | –
5 | – | Cc1cc(NC2=NCCN2)cc2[nH]cnc12 | 126 | – | – | – | – | – | – | – | –
6 | – | Cc1cc2nc[nH]c2cc1NC1=NCCN1 | 214 | – | – | – | – | – | – | – | –
7 | – | Cn1cnc2cc(NC3=NCCN3)ccc21 | 155 | – | – | – | – | – | – | – | –
8 | – | CC(C)Cn1cnc2cc(NC3=NCCN3)ccc21 [Example 22, 1-Isobutyl-5-(2-imidazolin-2-ylamino)Benzimidazole] | – | 427 | 10.5 | 105 | 1860 | 182 | – | – | –
9 | – | CC(C)Cn1cnc2c(Br)c(NC3=NCCN3)ccc21 [Example 23, 1-Isobutyl-4-bromo-5-(2-imidazolin-2-ylamino)Benzimidazole] | – | – | 5.01 | 38 | 380 | 229 | 309 | – | –
10 | – | c1cc2c(cc1NC1=NCCN1)ncn2C1CCCC1 [Example 25, 1-Cyclopentyl-5-(2-imidazolin-2-ylamino)Benzimidazole] | – | 646 | 6.17 | 44.7 | 9770 | 437 | – | – | –
11 | 8.91 | Brc1c(NC2=NCCN2)ccc2c1ncn2C1CCCC1 [Example 26, 1-Cyclopentyl-4-bromo-5-(2-imidazolin-2-ylamino)Benzimidazole] | – | – | – | 57.5 | 9550 | 257 | 562 | – | –
12 | – | c1cc2ncn(C3CCCC3)c2cc1NC1=NCCN1 [Example 27, 3-Cyclopentyl-5-(2-imidazolin-2-ylamino)Benzimidazole] | – | 1020 | 8.32 | 33.9 | 6920 | 724 | – | – | –
13 | – | Brc1c(NC2=NCCN2)ccc2ncn(C3CCCC3)c12 [Example 28, 3-Cyclopentyl-4-bromo-5-(2-imidazolin-2-ylamino)Benzimidazole] | – | – | 0.661 | – | – | 95.5 | 41.7 | 10.5 | 3800
14 | 0.912 | c1cc2c(cc1NC1=NCCN1)ncn2CC1CCCCC1 [Example 29, 1-Cyclohexylmethyl-5-(2-imidazolin-2-ylamino)Benzimidazole] | – | – | – | 20.9 | 1410 | 490 | 363 | – | –
15 | – | Brc1c(NC2=NCCN2)ccc2ncn(CC3CCCCC3)c12 [Example 31, 3-Cyclohexylmethyl-4-bromo-5-(2-imidazolin-2-ylamino)Benzimidazole] | – | – | 0.257 | – | – | 38.9 | 37.2 | 2.14 | 372
16 | – | c1ccc(Cn2cnc3cc(NC4=NCCN4)ccc32)cc1 [Example 32, 1-Benzyl-5-(2-imidazolin-2-ylamino)Benzimidazole] | – | – | 3.72 | – | – | 162 | 50.1 | 33.1 | 3890
17 | 1.82 | Brc1c(NC2=NCCN2)ccc2c1ncn2Cc1ccccc1 [Example 33, 1-Benzyl-4-bromo-5-(2-imidazolin-2-ylamino)Benzimidazole] | – | – | – | 33.1 | 1450 | 162 | 13.8 | – | –
18 | – | c1ccc(Cn2cnc3ccc(NC4=NCCN4)cc32)cc1 [Example 34, 3-Benzyl-5-(2-imidazolin-2-ylamino)Benzimidazole] | – | – | 2.57 | – | – | 186 | 89.1 | 12 | 1350
19 | – | Brc1c(NC2=NCCN2)ccc2ncn(Cc3ccccc3)c12 [Example 35, 3-Benzyl-4-bromo-5-(2-imidazolin-2-ylamino)Benzimidazole] | – | – | 0.309 | – | – | 17 | 15.8 | 1.95 | 794
20 | – | OCCn1cnc2ccc(NC3=NCCN3)c(Br)c21 [Example 39, 3-(2-Hydroxyethyl)-4-bromo-5-(2-imidazolin-2-ylamino)Benzimidazole] | – | – | 1.58 | – | – | 617 | 490 | 11 | 4790
21 | 9.33 | NCCn1cnc2c(Br)c(NC3=NCCN3)ccc21 [Example 40, 1-(2-Aminoethyl)-4-bromo-5-(2-imidazolin-2-ylamino)Benzimidazole] | – | – | – | 26.9 | 9120 | 2820 | 955 | – | –
